Assays:
NF-κB signaling pathway = assay: Cell-based dual luciferase NF-κB reporter assay (HEK293 cells, TNF stimulated); conditions: Homo sapiens, HEK293
Method in brief: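 HEK293 cells transfected with Firefly luciferase and NF-κB-response-element NanoLuc plasmids; compounds at 100–0.005 µM in 1% DMSO. Cells stimulated with 2.5 ng/mL TNF 30 min after compound addition. Firefly and NanoLuc activities read after 6 h by Nano-Glo dual-luciferase detection.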

[1] = tested on: bladder carcinoma RT4 cell line; assay: TNF-α-induced cytotoxicity assay (CellTiter-Glo viability); format: cell-based; conditions: Homo sapiens, RT-4, 72 h
Method in brief: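 RT4 bladder carcinoma cells, 1000 per well, stimulated with 1.25 ng/mL TNFα together with compound for 72 h at 37° C., 5% CO2. Viability read by CellTiter-Glo luminescence, proportional to cellular ATP, as a measure of HOIP-dependent cytotoxicity.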

[2] = target: T1, human E3 ubiquitin-protein ligase RNF31 (HOIP) (Homo sapiens, UniProt Q96EP0); assay: Cell-free HTRF-based HOIP inhibition assay; format: biochemical
T1 sequence (Q96EP0 695-1072 limits assumed): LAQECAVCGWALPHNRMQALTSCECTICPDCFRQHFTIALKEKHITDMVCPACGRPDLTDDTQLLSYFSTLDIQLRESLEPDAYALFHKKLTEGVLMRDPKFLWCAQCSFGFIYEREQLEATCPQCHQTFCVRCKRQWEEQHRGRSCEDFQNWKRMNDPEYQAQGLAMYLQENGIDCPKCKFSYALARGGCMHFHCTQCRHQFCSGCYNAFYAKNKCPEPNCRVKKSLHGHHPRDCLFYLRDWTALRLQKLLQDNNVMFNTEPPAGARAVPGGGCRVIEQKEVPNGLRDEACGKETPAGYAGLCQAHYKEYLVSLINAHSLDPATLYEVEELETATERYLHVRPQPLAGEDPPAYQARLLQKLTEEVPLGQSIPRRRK
Method in brief: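 HTRF read (ex 337 nm; em 665 and 620 nm) after a 2.5 h, 25° C. ubiquitination step started by adding E2 plus substrates. Before that, E. coli-expressed human HOIP fragment and E1 were incubated 1 h at 25° C. with compound at 100-0.005 μM, 1% DMSO final.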

Row | SMILES | IC50 (NF-κB signaling pathway) | IC50 [2] | IC50 [1]
1 | O=C(NC/C=C/S(=O)(=O)c1ccccc1)c1cc2c([nH]c1=O)CCN(C(=O)OCCN1CCCCC1=O)C2 [Example 83, 2-(2-Oxopiperidin-1-yl)ethyl 3-{[(2E)-3-(benzenesulfonyl)prop-2-en-1-yl]carbamoyl}-2-oxo-1,2,5,6,7,8-hexahydro-1,6-naphthyridine-6-carboxylate] | ≤ 100000 nM | ≤ 1000 nM | ≤ 100000 nM
2 | O=C(NC/C=C/S(=O)(=O)c1ccccc1)c1cc2c([nH]c1=O)CCN(C(=O)OC1CCCC1)C2 [Example 84, cyclopentyl 3-{[(2E)-3-(benzenesulfonyl)prop-2-en-1-yl]carbamoyl}-2-oxo-1,2,5,6,7,8-hexahydro-1,6-naphthyridine-6-carboxylate] | ≤ 1000 nM | ≤ 100 nM | ≤ 1000 nM
3 | O=C(NC/C=C/S(=O)(=O)c1ccccc1)c1cc2c([nH]c1=O)CCN(C(=O)OCCc1ccco1)C2 [Example 89, 2-(furan-2-yl)ethyl 3-{[(2E)-3-(benzenesulfonyl)prop-2-en-1-yl]carbamoyl}-2-oxo-1,2,5,6,7,8-hexahydro-1,6-naphthyridine-6-carboxylate] | ≤ 10000 nM | ≤ 1000 nM | ≤ 1000 nM
4 | O=C(NC/C=C/S(=O)(=O)c1ccccc1)c1cc2c([nH]c1=O)CCN(C(=O)OC1CCCCC1)C2 [Example 90, cyclohexyl 3-{[(2E)-3-(benzenesulfonyl)prop-2-en-1-yl]carbamoyl}-2-oxo-1,2,5,6,7,8-hexahydro-1,6-naphthyridine-6-carboxylate] | ≤ 1000 nM | ≤ 100 nM | ≤ 1000 nM
5 | CC(OC(=O)N1CCc2[nH]c(=O)c(C(=O)NC/C=C/S(=O)(=O)c3ccccc3)cc2C1)c1c(F)cccc1F (stereo not drawn) [Example 91, 1-(2,6-difluorophenyl)ethyl 3-{[(2E)-3-(benzenesulfonyl)prop-2-en-1-yl]carbamoyl}-2-oxo-1,2,5,6,7,8-hexahydro-1,6-naphthyridine-6-carboxylate] | ≤ 1000 nM | ≤ 1000 nM | ≤ 1000 nM
6 | CC(=O)N1CCC(OC(=O)N2CCc3[nH]c(=O)c(C(=O)NC/C=C/S(=O)(=O)c4ccc(Cl)cc4)cc3C2)CC1 [Example 92, 1-acetylpiperidin-4-vi 3-{[(2E)-3-(4-chlorobenzenesulfonyl)prop-2-en-1-yl]carbamoyl}-2-oxo-1,2,5,6,7,8-hexahydro-1,6-naphthyridine-6-carboxylate] | ≤ 10000 nM | ≤ 100 nM | ≤ 100000 nM
7 | COCC(C)OC(=O)N1CCc2[nH]c(=O)c(C(=O)NC/C=C/S(=O)(=O)c3ccc(Cl)cc3)cc2C1 (stereo not drawn) [Example 94, 1-methoxypropan-2-yl 3-{[(2E)-3-(4-chlorobenzenesulfonyl)prop-2-en-1-yl]carbamoyl}-2-oxo-1,2,5,6,7,8-hexahydro-1,6-naphthyridine-6-carboxylate] | ≤ 1000 nM | ≤ 100 nM | ≤ 10000 nM
8 | O=C(NC/C=C/S(=O)(=O)c1ccc(Cl)cn1)c1cc2c([nH]c1=O)CCN(C(=O)OCC1CC1)C2 [Example 95, cyclopropylmethyl 3-{[(2E)-3-[(5-chloropyridin-2-yl)sulfonyl]prop-2-en-1-yl]carbamoyl}-2-oxo-1,2,5,6,7,8-hexahydro-1,6-naphthyridine-6-carboxylate] | ≤ 1000 nM | ≤ 100 nM | ≤ 10000 nM
9 | COc1ccc(S(=N)(=O)/C=C/CNC(=O)c2cc3c([nH]c2=O)CCN(C(=O)OCC2CC2)C3)cc1F (stereo not drawn) [Example 98, cyclopropylmethyl 3-{[(2E)-3-[(3-fluoro-4-methoxyphenyl)(imino)oxo-λ^6-sulfanyl]prop-2-en-1-yl]carbamoyl}-2-oxo-1,2,5,6,7,8-hexahydro-1,6-naphthyridine-6-carboxylate] | ≤ 1000 nM | ≤ 100 nM | ≤ 10000 nM
10 | CC(C)(C)NC(=O)N1CCc2[nH]c(=O)c(C(=O)NC/C=C/S(=O)(=O)c3ccc(Cl)cc3)cc2C1 [Example 99, N6-tert-butyl-N3-[(2E)-3-(4-chlorobenzenesulfonyl)prop-2-en-1-yl]-2-oxo-1,2,5,6,7,8-hexahydro-1,6-naphthyridine-3,6-dicarboxamide] | ≤ 10000 nM | ≤ 1000 nM | ≤ 10000 nM
11 | O=C(NC/C=C/S(=O)(=O)c1ccc(Cl)cc1)c1cc2c([nH]c1=O)CCN(C(=O)NC1CC1)C2 [Example 101, N3-[(2E)-3-(4-chlorobenzenesulfonyl)prop-2-en-1-yl]-N6-cyclopropyl-2-oxo-1,2,5,6,7,8-hexahydro-1,6-naphthyridine-3,6-dicarboxamide] | ≤ 100000 nM | ≤ 1000 nM | ≤ 100000 nM
12 | COCCS(=O)(=O)N1CCc2[nH]c(=O)c(C(=O)NC/C=C/S(=O)(=O)c3ccccc3)cc2C1 [Example 103, N-[(2E)-3-(benzenesulfonyl)prop-2-en-1-yl]-6-(2-methoxyethanesulfonyl)-2-oxo-1,2,5,6,7,8-hexahydro-1,6-naphthyridine-3-carboxamide] | ≤ 100000 nM | ≤ 1000 nM | ≤ 100000 nM
13 | O=C(NC/C=C/S(=O)(=O)c1ccccc1)c1cc2c([nH]c1=O)CCN(Cc1cccnc1)C2 [Example 104, N-[(2E)-3-(benzenesulfonyl)prop-2-en-1-yl]-2-oxo-6-[(pyridin-3-yl)methyl]-1,2,5,6,7,8-hexahydro-1,6-naphthyridine-3-carboxamide] | ≤ 10000 nM | ≤ 1000 nM | ≤ 10000 nM

Continued, in another order:

Row | IC50 (NF-κB signaling pathway) | IC50 [2] | SMILES | IC50 [1]
14 | ≤ 1000 nM | ≤ 100 nM | CC1(C)CC1COC(=O)N1CCc2[nH]c(=O)c(C(=O)NC/C=C/S(=O)(=O)c3ccc(Cl)cc3)cc2C1 (stereo not drawn) [Example 85, (2,2-dimethylcyclopropyl)methyl 3-{[(2E)-3-(4-chlorobenzenesulfonyl)prop-2-en-1-yl]carbamoyl}-2-oxo-1,2,5,6,7,8-hexahydro-1,6-naphthyridine-6-carboxylate] | ≤ 1000 nM
15 | ≤ 1000 nM | ≤ 100 nM | O=C(NC/C=C/S(=O)(=O)c1ccc(Cl)cc1)c1cc2c([nH]c1=O)CCN(C(=O)OCC1CC1(F)F)C2 (stereo not drawn) [Example 86, (2,2-difluorocyclopropyl)methyl 3-{[(2E)-3-(4-chlorobenzenesulfonyl)prop-2-en-1-yl]carbamoyl}-2-oxo-1,2,5,6,7,8-hexahydro-1,6-naphthyridine-6-carboxylate] | ≤ 10000 nM
16 | ≤ 10000 nM | ≤ 100 nM | O=C(NC/C=C/S(=O)(=O)c1ccc(Cl)cc1)c1cc2c([nH]c1=O)CCN(C(=O)OC1COC1)C2 [Example 87, oxetan-3-vi 3-{[(2E)-3-(4-chlorobenzenesulfonyl)prop-2-en-1-yl]carbamoyl}-2-oxo-1,2,5,6,7,8-hexahydro-1,6-naphthyridine-6-carboxylate] | ≤ 100000 nM
17 | ≤ 1000 nM | ≤ 100 nM | O=C(NC/C=C/S(=O)(=O)c1ccc(Cl)cc1)c1cc2c([nH]c1=O)CCN(C(=O)OCC1CC1)C2 [Example 88, cyclopropylmethyl 3-{[(2E)-3-(4-chlorobenzenesulfonyl)prop-2-en-1-yl]carbamoyl}-2-oxo-1,2,5,6,7,8-hexahydro-1,6-naphthyridine-6-carboxylate] | ≤ 1000 nM
18 | ≤ 1000 nM | ≤ 100 nM | O=C(NC/C=C/S(=O)(=O)c1ccc(Cl)cc1)c1cc2c([nH]c1=O)CCN(C(=O)OCCF)C2 [Example 93, 2-fluoroethyl 3-{[(2E)-3-(4-chlorobenzenesulfonyl)prop-2-en-1-yl]carbamoyl}-2-oxo-1,2,5,6,7,8-hexahydro-1,6-naphthyridine-6-carboxylate] | ≤ 1000 nM
19 | ≤ 1000 nM | ≤ 1000 nM | O=C(NC/C=C/S(=O)(=O)c1ccc(Cl)cc1)c1cc2c([nH]c1=O)CCN(C(=O)OCC(F)F)C2 [Example 96, 2,2-difluoroethyl 3-{[(2E)-3-(4-chlorobenzenesulfonyl)prop-2-en-1-yl]carbamoyl}-2-oxo-1,2,5,6,7,8-hexahydro-1,6-naphthyridine-6-carboxylate] | ≤ 10000 nM
20 | ≤ 1000 nM | ≤ 100 nM | O=C(NC/C=C/S(=O)(=O)c1ccc(Cl)cc1)c1cc2c([nH]c1=O)CCN(C(=O)OCC(F)(F)F)C2 [Example 97, 2,2,2-trifluoroethyl 3-{[(2E)-3-(4-chlorobenzenesulfonyl)prop-2-en-1-yl]carbamoyl}-2-oxo-1,2,5,6,7,8-hexahydro-1,6-naphthyridine-6-carboxylate] | ≤ 10000 nM
21 | ≤ 100000 nM | ≤ 1000 nM | O=C(NC/C=C/S(=O)(=O)c1ccc(Cl)cc1)c1cc2c([nH]c1=O)CCN(C(=O)NCC1CC1)C2 [Example 100, N3-[(2E)-3-(4-chlorobenzenesulfonyl)prop-2-en-1-yl]-N6-(cyclopropylmethyl)-2-oxo-1,2,5,6,7,8-hexahydro-1,6-naphthyridine-3,6-dicarboxamide] | ≤ 100000 nM
